Experimental data published in ChEMBL document CHEMBL3751755, “Developing steroidal aromatase inhibitors-an effective armament to win the battle against breast cancer” (Eur J Med Chem, 2015).

Columns and labels:
Aromatase [1] = molecular target: T1, Aromatase (Homo sapiens, UniProt P11511); test: Inhibition of human aromatase extracted from placental microsomes using [1,2-3H]androstenedione as substrate after 30 mins by scintillation counting analysis
T1 sequence (P11511 whole entry): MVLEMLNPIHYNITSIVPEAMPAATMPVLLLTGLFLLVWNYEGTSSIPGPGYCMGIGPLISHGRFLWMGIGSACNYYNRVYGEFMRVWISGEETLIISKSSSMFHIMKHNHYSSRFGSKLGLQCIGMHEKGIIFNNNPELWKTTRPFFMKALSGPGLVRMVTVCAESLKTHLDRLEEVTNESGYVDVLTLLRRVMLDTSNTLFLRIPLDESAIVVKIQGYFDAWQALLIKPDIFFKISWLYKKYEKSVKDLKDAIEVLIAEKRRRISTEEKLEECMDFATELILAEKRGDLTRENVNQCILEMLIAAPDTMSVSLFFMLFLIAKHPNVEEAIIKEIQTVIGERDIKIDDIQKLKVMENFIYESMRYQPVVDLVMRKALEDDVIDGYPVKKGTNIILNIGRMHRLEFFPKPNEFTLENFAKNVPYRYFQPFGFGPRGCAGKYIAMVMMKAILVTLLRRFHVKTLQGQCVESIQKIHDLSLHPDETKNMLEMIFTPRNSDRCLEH

Aromatase [2] = molecular target: T2, Aromatase (Rattus norvegicus, UniProt P22443); test: Inhibition of aromatase in denucleated ovarian fraction extracted from PMSG pretreated Wistar rat by using testosterone as substrate after 15 mins by radio immuno assay
T2 sequence (P22443 whole entry): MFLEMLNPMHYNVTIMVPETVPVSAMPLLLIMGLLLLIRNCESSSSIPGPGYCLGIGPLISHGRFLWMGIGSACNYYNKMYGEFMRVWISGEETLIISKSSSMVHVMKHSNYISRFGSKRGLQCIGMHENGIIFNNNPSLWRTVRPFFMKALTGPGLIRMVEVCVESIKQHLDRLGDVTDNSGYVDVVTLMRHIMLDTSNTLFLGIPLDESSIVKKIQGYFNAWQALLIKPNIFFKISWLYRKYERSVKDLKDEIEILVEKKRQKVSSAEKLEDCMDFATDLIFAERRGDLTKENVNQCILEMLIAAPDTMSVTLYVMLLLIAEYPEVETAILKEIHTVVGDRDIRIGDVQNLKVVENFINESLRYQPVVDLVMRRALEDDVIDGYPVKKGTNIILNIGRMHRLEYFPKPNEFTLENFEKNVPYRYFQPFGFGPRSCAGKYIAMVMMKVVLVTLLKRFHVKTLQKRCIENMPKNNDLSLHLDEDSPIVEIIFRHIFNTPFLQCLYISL

Aromatase [3] = molecular target: T1, Aromatase; test: Inhibition of human aromatase extracted from placental microsomes using [1beta,2beta-3H]testosterone as substrate measured at 7 to 21 mins by scintillation counting analysis
Aromatase [4] = molecular target: T1, Aromatase; test: Competitive inhibition of human aromatase extracted from placental microsomes by double reciprocal plot analysis in presence of 4-androstene-3,17-dione; settings: read-out: Ki(app)
Aromatase [5] = molecular target: T1, Aromatase; test: Inhibition of human aromatase extracted from placental microsomes at 520 nM after 10 mins
Aromatase [6] = molecular target: T2, Aromatase; test: Inhibition of aromatase in denucleated ovarian fraction extracted from PMSG pretreated Wistar rat by using testosterone as substrate at 1 uM
Aromatase [7] = molecular target: T1, Aromatase; test: Inhibition of human aromatase extracted from placental microsomes using [1beta,2beta-3H]androstenedione as substrate after 10 mins
Aromatase [8] = molecular target: T1, Aromatase; test: Inhibition of aromatase (unknown origin) at 50 uM
Aromatase [9] = molecular target: T1, Aromatase; test: Inhibition of human aromatase extracted from placental microsomes using [1beta,2beta-3H]androstenedione as substrate
Aromatase [10] = molecular target: T1, Aromatase
Aromatase [11] = molecular target: T1, Aromatase; test: Inhibition of human aromatase extracted from placental microsomes using [1beta-3H]androstenedione as substrate after 20 mins
Aromatase [12] = molecular target: T1, Aromatase; remark: listed apart in the source
[13] = Antitumor activity against NMU-induced mammary tumor in rat; format: functional
Aromatase [14] = molecular target: T2, Aromatase; test: Inhibition of rat aromatase extracted from ovarian fraction using testosterone as substrate
Aromatase [15] = molecular target: T1, Aromatase; test: Inhibition of human aromatase extracted from placental microsomes using [1beta-3H]androstenedione as substrate at 10 to 500 nM after 30 mins; settings: 0.5 h
Aromatase [16] = molecular target: T1, Aromatase; test: Inhibition of human aromatase extracted from placental microsomes using [1beta-3H]androstenedione as substrate after 30 mins
Aromatase [17] = molecular target: T1, Aromatase; test: Inhibition of human aromatase after 30 mins by fluorescence assay
Aromatase [18] = molecular target: T1, Aromatase; test: Inhibition of human aromatase extracted from placental microsomes using 4-[14C]androstenedione/androstenedione as substrate assessed as estrogen formation after 30 mins in NADPH-generating system; settings: 0.5 h
Aromatase [19] = molecular target: T2, Aromatase; test: Inhibition of rat aromatase extracted from PMSG-primed ovarian fraction using 4-[14C]androstenedione/androstenedione as substrate assessed as estrogen formation after 30 mins in NADPH-generating system; settings: 0.5 h
Aromatase [20] = molecular target: T1, Aromatase; test: Competitive inhibition of human aromatase extracted from placental microsomes after 10 mins by Lineweaver- Burk plots analysis in presence of [1beta-3H]androstenedione

SMILES: C[C@]12CCC(=O)C(Sc3ccccc3)=C1CC[C@@H]1[C@@H]2CC[C@]2(C)C(=O)CC[C@@H]12
- IC50 (Aromatase [1]): 190 nM

SMILES: C[C@]12CCC(=O)C(Oc3ccccc3)=C1CC[C@@H]1[C@@H]2CC[C@]2(C)C(=O)CC[C@@H]12
- IC50 (Aromatase [1]): 530 nM

SMILES: C[C@@H]1OC(=O)C[C@H]2[C@@H]3C=C[C@H]4C[C@@H](O)CC[C@]4(C)[C@H]3CC[C@]12C
- IC50 (Aromatase [2]): 250 nM

SMILES: C[C@]12CC[C@H]3[C@@H](/C(=N/OCCCn4ccnc4)C=C4C[C@@H](O)CC[C@@]43C)[C@@H]1CC[C@@H]2O
- IC50 (Aromatase [3]): 3100 nM

SMILES: C[C@]12C=CC(=O)C=C1C[C@@H](Sc1ccc3ccccc3c1)[C@@H]1[C@@H]2CC[C@]2(C)C(=O)CC[C@@H]12
- Ki (Aromatase [4]): 12 nM

SMILES: C[C@]12CCC(=O)C=C1CC[C@@H]1[C@@H]2CC[C@]2(C)C(=O)[C@H](Br)C[C@@H]12
- inhibition at […] (Aromatase [5]): 95%

SMILES: C[C@]12CC[C@H]3[C@@H](CCC4=C(O)C(=O)CC[C@@]43C)[C@@H]1CC(=O)OC2
- inhibition at 1 µM (Aromatase [6]): 34.8%

SMILES: C[C@]12CCC(=O)C(SCCl)=C1CC[C@@H]1[C@@H]2CC[C@]2(C)C(=O)CC[C@@H]12
- IC50 (Aromatase [7]): 940 nM

SMILES: C[C@]12CCC(=O)C(O)=C1C=C[C@@H]1[C@@H]2CC[C@]2(C)/C(=C/c3ccccn3)CC[C@@H]12
- inhibition at 50 µM (Aromatase [8]): 92%

SMILES: C[C@@H]1OC(=O)C[C@H]2[C@@H]3CCC4=CC(=O)CC[C@]4(C)[C@H]3CC[C@]12C
- IC50 (Aromatase [2]): 280 nM

SMILES: C[C@]12CC=C3[C@@H](CCC4=CC(=O)CC[C@@]43CCSCF)[C@@H]1CCC2=O
- IC50 (Aromatase [9]): 50 nM

SMILES: C[C@]12C=CC(=O)C=C1C[C@@H](Sc1ccc(Br)cc1)[C@@H]1[C@@H]2CC[C@]2(C)C(=O)CC[C@@H]12
- Ki (Aromatase [4]): 12 nM

SMILES: C[C@]12CCC(=O)C(c3ccc(OS(N)(=O)=O)cc3)=C1CC[C@@H]1[C@@H]2CC[C@]2(C)C(=O)CC[C@@H]12
- Ki (Aromatase [10]): 97 nM
- IC50 (Aromatase [11]): 990 nM

SMILES: C[C@]12CCC(=O)C(F)=C1CC[C@@H]1[C@@H]2CC[C@]2(C)C(=O)CC[C@@H]12
- Ki (Aromatase [12]): 15 nM
- Activity [13]: 44%

SMILES: C[C@]12CCC(=O)C=C1CC[C@@H]1[C@@H]2CC[C@@]2(C)[C@H]1CC[C@@]2(O)Cc1ccccn1
- inhibition (INH) (Aromatase [14]): 51.5%

SMILES: C[C@]12CC[C@H]3[C@@H](Cc4noc5c4[C@]3(C)CCC5=O)[C@@H]1CC[C@@H]2O
- inhibition (INH) (Aromatase [15]): 50%
- IC50 (Aromatase [16]): 18600 nM

SMILES: C[C@]12CC[C@H]3[C@@H](Cc4noc5c4[C@]3(C)CC[C@@H]5O)[C@@H]1CC[C@@H]2O
- inhibition (INH) (Aromatase [15]): 50%
- IC50 (Aromatase [16]): 120000 nM

SMILES: C[C@]12C=CC(=O)C=C1C=C[C@@H]1[C@@H]2CC[C@@]2(C)[C@H]1CC[C@@]2(O)Cc1ccccn1
- inhibition (INH) (Aromatase [14]): 51.5%

SMILES: C[C@]12C=CC(=O)C=C1CC[C@@H]1[C@@H]2CC[C@]2(C)C3=NN(c4ccccc4)[C@H](c4ccccc4)[C@H]3C[C@@H]12
- IC50 (Aromatase [17]): 1820 nM

SMILES: C[C@]12C=CC(=O)C(O)=C1C=C[C@@H]1[C@@H]2CC[C@]2(C)C(=O)CC[C@@H]12
- inhibition (INH) (Aromatase [18]): 30%
- inhibition (INH) (Aromatase [19]): 30%

SMILES: C[C@]12C=CC(=O)C(Sc3ccccc3)=C1CC[C@@H]1[C@@H]2CC[C@]2(C)C(=O)CC[C@@H]12
- Ki (Aromatase [20]): 9.8 nM

SMILES: C[C@]12CCC(=O)C(Oc3ccccc3)=C1C[C@@H](Sc1ccccc1)[C@@H]1[C@@H]2CC[C@]2(C)C(=O)CC[C@@H]12
- IC50 (Aromatase [1]): 1650 nM

SMILES: C[C@@H]1OC(=O)C[C@H]2[C@@H]3CCC4=C(O)C(=O)CC[C@]4(C)[C@H]3CC[C@]12C
- inhibition at 1 µM (Aromatase [6]): 23.3%
